Reference: the supplement of paper PMC12592484

Tests used:
Experiment in all cases: drug sensitivity score (DSS2, normalised partial AUC of dose-response, 72 h CellTiter-Glo viability) (DSS (dimensionless)); higher = more sensitive (stronger growth inhibition / cytotoxicity); extreme values may be limits of the assay
22Rv1 = test system: 22Rv1
In short: (§1)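 Five doses spanning a 10,000-fold range were pre-dispensed into 384-well plates, into which low-passage primary prostate cancer-associated fibroblasts, PF179T, WPMY-1, LNCaP and 22Rv1 cells were seeded. After 72 h, CellTiter-Glo 2.0 luminescence measured viability, scaled to vehicle and positive-control wells. Higher values of the drug sensitivity score, a BREEZE-computed partial area under the fitted logistic dose–response curve divided by the log of the upper asymptote, mean greater sensitivity.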

CAF#1 = test system: CAF#1 (primary prostate cancer-associated fibroblasts of myCAF-like type)
In short: as §1

CAF#2 = test system: CAF#2 (primary prostate cancer-associated fibroblasts of iCAF-like type)
In short: as §1

CAF#3 = test system: CAF#3 (primary prostate cancer-associated fibroblasts of myCAF-like type)
In short: as §1

CAF#4 = test system: CAF#4 (primary prostate cancer-associated fibroblasts of iCAF-like type)
In short: as §1

CAF#5 = test system: CAF#5 (primary prostate cancer-associated fibroblasts of myCAF-like type)
In short: as §1

CAF#6 = test system: CAF#6 (primary prostate cancer-associated fibroblasts of iCAF-like type)
In short: as §1

CAF#7 = test system: CAF#7 (primary prostate cancer-associated fibroblasts of myCAF-like type)
In short: as §1

LNCAP = test system: LNCAP
In short: as §1

PF179T = test system: PF179T
In short: as §1

WPMY-1 = test system: WPMY-1
In short: as §1

Nc1nc(F)nc2c1ncn2[C@@H]1O[C@H](CO)[C@@H](O)[C@@H]1O [Fludarabine] (tested concentration range 1-10000 nM)
drug sensitivity score (22Rv1): 0
drug sensitivity score (CAF#1): 1.5
drug sensitivity score (CAF#2): 0.7
drug sensitivity score (CAF#3): 0
drug sensitivity score (CAF#4): 0.3
drug sensitivity score (CAF#5): 2.2
drug sensitivity score (CAF#6): 0.1
drug sensitivity score (CAF#7): 2.1
drug sensitivity score (LNCAP): 5.5
drug sensitivity score (PF179T): 4.3
drug sensitivity score (WPMY-1): 0.7

CCCS(=O)(=O)Nc1ccc(F)c(C(=O)c2c[nH]c3ncc(-c4ccc(Cl)cc4)cc23)c1F [Vemurafenib] (tested concentration range 1-10000 nM)
drug sensitivity score (22Rv1): 3.4
drug sensitivity score (CAF#1): 4.3
drug sensitivity score (CAF#2): 5.3
drug sensitivity score (CAF#3): 4.4
drug sensitivity score (CAF#4): 3
drug sensitivity score (CAF#5): 4.7
drug sensitivity score (CAF#6): 0.8
drug sensitivity score (CAF#7): 1.6
drug sensitivity score (LNCAP): 3
drug sensitivity score (PF179T): 2.8
drug sensitivity score (WPMY-1): 1.9

CC1(COc2ccc3c(c2)ncn3-c2ccc3cccc(N4CCC(N)CC4)c3n2)COC1 [Crenolanib] (tested concentration range 1-10000 nM)
drug sensitivity score (22Rv1): 4.9
drug sensitivity score (CAF#1): 8.9
drug sensitivity score (CAF#2): 7.3
drug sensitivity score (CAF#3): 7.5
drug sensitivity score (CAF#4): 3.2
drug sensitivity score (CAF#5): 9.3
drug sensitivity score (CAF#6): 7
drug sensitivity score (CAF#7): 3.5
drug sensitivity score (LNCAP): 4.4
drug sensitivity score (PF179T): 4.7
drug sensitivity score (WPMY-1): 7.2

NC(=O)c1cccc2cn(-c3ccc([C@@H]4CCCNC4)cc3)nc12 [Niraparib] (tested concentration range 1-10000 nM)
drug sensitivity score (22Rv1): 7.5
drug sensitivity score (CAF#1): 1.5
drug sensitivity score (CAF#2): 3.9
drug sensitivity score (CAF#3): 3.2
drug sensitivity score (CAF#4): 2.5
drug sensitivity score (CAF#5): 1.7
drug sensitivity score (CAF#6): 1.1
drug sensitivity score (CAF#7): 3.7
drug sensitivity score (LNCAP): 5.5
drug sensitivity score (PF179T): 5.8
drug sensitivity score (WPMY-1): 4.4

N.N.[Cl][Pt][Cl] [Cisplatin] (tested concentration range 10-100000 nM)
drug sensitivity score (22Rv1): 15
drug sensitivity score (CAF#1): 11.8
drug sensitivity score (CAF#2): 18.1
drug sensitivity score (CAF#3): 5.7
drug sensitivity score (CAF#4): 5
drug sensitivity score (CAF#5): 14.6
drug sensitivity score (CAF#6): 4.3
drug sensitivity score (CAF#7): 4.8
drug sensitivity score (LNCAP): 5.6
drug sensitivity score (PF179T): 11.4
drug sensitivity score (WPMY-1): 16

CC(C)C[C@H](NC(=O)[C@@H](COC(C)(C)C)NC(=O)[C@H](Cc1ccc(O)cc1)NC(=O)[C@H](CO)NC(=O)[C@H](Cc1c[nH]c2ccccc12)NC(=O)[C@H](Cc1cnc[nH]1)NC(=O)[C@@H]1CCC(=O)N1)C(=O)N[C@@H](CCCNC(=N)N)C(=O)N1CCC[C@H]1C(=O)NNC(N)=O [Goserelin] (tested concentration range 1-10000 nM)
drug sensitivity score (22Rv1): 0
drug sensitivity score (CAF#1): 0
drug sensitivity score (CAF#2): 0
drug sensitivity score (CAF#3): 0
drug sensitivity score (CAF#4): 0
drug sensitivity score (CAF#5): 0.2
drug sensitivity score (CAF#6): 0.6
drug sensitivity score (CAF#7): 0
drug sensitivity score (LNCAP): 0
drug sensitivity score (PF179T): 0
drug sensitivity score (WPMY-1): 0

CN1CC[C@@H](NC(=O)Nc2ccc(C#N)cc2)C[C@@H]1c1nc2ccccc2[nH]1 [Glasdegib] (tested concentration range 0.1-1000 nM)
drug sensitivity score (22Rv1): 0
drug sensitivity score (CAF#1): 0
drug sensitivity score (CAF#2): 0
drug sensitivity score (CAF#3): 0.1
drug sensitivity score (CAF#4): 0
drug sensitivity score (CAF#5): 0
drug sensitivity score (CAF#6): 0.3
drug sensitivity score (CAF#7): 0
drug sensitivity score (LNCAP): 0
drug sensitivity score (PF179T): 0
drug sensitivity score (WPMY-1): 0

COc1cccc2c1C(=O)c1c(O)c3c(c(O)c1C2=O)C[C@@](O)(C(C)=O)C[C@@H]3O[C@H]1C[C@H](N)[C@H](O)[C@H](C)O1 [Daunorubicin] (tested concentration range 0.1-1000 nM)
drug sensitivity score (22Rv1): 12.9
drug sensitivity score (CAF#1): 7.3
drug sensitivity score (CAF#2): 9.4
drug sensitivity score (CAF#3): 6.4
drug sensitivity score (CAF#4): 4.2
drug sensitivity score (CAF#5): 6.6
drug sensitivity score (CAF#6): 7.9
drug sensitivity score (CAF#7): 8.4
drug sensitivity score (LNCAP): 17.5
drug sensitivity score (PF179T): 8.6
drug sensitivity score (WPMY-1): 10.7

Cc1nc(NC(=O)N2CCC[C@H]2C(N)=O)sc1-c1ccnc(C(C)(C)C(F)(F)F)c1 [Alpelisib] (tested concentration range 0.2-2500 nM)
drug sensitivity score (22Rv1): 4.8
drug sensitivity score (CAF#1): 2.9
drug sensitivity score (CAF#2): 2.5
drug sensitivity score (CAF#3): 2.1
drug sensitivity score (CAF#4): 2.6
drug sensitivity score (CAF#5): 3.1
drug sensitivity score (CAF#6): 3
drug sensitivity score (CAF#7): 3.4
drug sensitivity score (LNCAP): 1.1
drug sensitivity score (PF179T): 0
drug sensitivity score (WPMY-1): 1.3

CC1(C)CNc2cc(NC(=O)c3cccnc3NCc3ccncc3)ccc21 [Motesanib] (tested concentration range 1-10000 nM)
drug sensitivity score (22Rv1): 0
drug sensitivity score (CAF#1): 1.4
drug sensitivity score (CAF#2): 2.7
drug sensitivity score (CAF#3): 5.9
drug sensitivity score (CAF#4): 0.7
drug sensitivity score (CAF#5): 2.4
drug sensitivity score (CAF#6): 2.1
drug sensitivity score (CAF#7): 3.7
drug sensitivity score (LNCAP): 5.1
drug sensitivity score (PF179T): 0
drug sensitivity score (WPMY-1): 0

CC(=O)N(O)CCCCCNC(=O)CCC(=O)N(O)CCCCCNC(=O)CCC(=O)N(O)CCCCCN [Deferoxamine] (tested concentration range 1-10000 nM)
drug sensitivity score (22Rv1): 4.9
drug sensitivity score (CAF#1): 0.9
drug sensitivity score (CAF#2): 4.8
drug sensitivity score (CAF#3): 0.2
drug sensitivity score (CAF#4): 3.2
drug sensitivity score (CAF#5): 2.4
drug sensitivity score (CAF#6): 1.4
drug sensitivity score (CAF#7): 1.6
drug sensitivity score (LNCAP): 3.2
drug sensitivity score (PF179T): 5.7
drug sensitivity score (WPMY-1): 5.3
